Assay results taken from paper PMC5127189 (Scientific Reports, 2016).

Assays:
[1] = system: ds26 (DNA, duplex) CAATCGGATCGAATTCGATCCGATTG; experiment: fluorescent intercalator displacement (FID); set-up: unit not given here; conditions: thiazole orange displaced
[2] = system: Pu27 (DNA, G4) TGGGGAGGGTGGGGAGGGTGGGGAAGG; experiment: fluorescent intercalator displacement (FID); conditions: K+ 100 mM (TBS); 10 mM Tris, pH 7.35 (TBS as defined in Table 4); thiazole orange displaced
[3] = system: c-kit-2 (DNA, G4) CGGGCGGGCGCTAGGGAGGGT; experiment: fluorescent intercalator displacement (FID); set-up: unit not given here; conditions: thiazole orange displaced
[4] = system: Pu22 (DNA, G4) TGAGGGTGGGTAGGGTGGGTAA; experiment: fluorescent intercalator displacement (FID); conditions: K+ 100 mM (TBS); 10 mM Tris, pH 7.35 (TBS as defined in Table 4); thiazole orange displaced
[5] = system: c-kit-1 (DNA, G4) CGGGCGGGCACGAGGGAGGGT; experiment: fluorescent intercalator displacement (FID); conditions: K+ 100 mM (TBS); 10 mM Tris, pH 7.35 (TBS as defined in Table 4); thiazole orange displaced
[6] = system: HTG21 (DNA, G4) GGGTTAGGGTTAGGGTTAGGG; experiment: fluorescent intercalator displacement (FID); set-up: unit not given here; conditions: thiazole orange displaced
[7] = system: c-kit-1 (DNA, G4) CGGGCGGGCACGAGGGAGGGT; experiment: fluorescent intercalator displacement (FID); set-up: unit not given here; conditions: thiazole orange displaced
[8] = system: Pu27 (DNA, G4) TGGGGAGGGTGGGGAGGGTGGGGAAGG; experiment: fluorescent intercalator displacement (FID); set-up: unit not given here; conditions: thiazole orange displaced
[9] = system: Pu22 (DNA, G4) TGAGGGTGGGTAGGGTGGGTAA; experiment: fluorescent intercalator displacement (FID); set-up: unit not given here; conditions: thiazole orange displaced
[10] = system: HTG21 (DNA, G4) GGGTTAGGGTTAGGGTTAGGG; experiment: fluorescent intercalator displacement (FID); conditions: K+ 100 mM (TBS); 10 mM Tris, pH 7.35 (TBS as defined in Table 4); thiazole orange displaced
[11] = system: ds26 (DNA, duplex) CAATCGGATCGAATTCGATCCGATTG; experiment: fluorescent intercalator displacement (FID); conditions: K+ 100 mM (TBS); 10 mM Tris, pH 7.35 (TBS as defined in Table 4); thiazole orange displaced
HL-7702 cells = experiment: MTT cytotoxicity assay, normal cell line; type: cell-based, human; conditions: HL-7702, 48 h; for Inhibitory rates (%): footnote a: 20 μM, footnotes b, c (salts, cisplatin) cut off
Procedure: (§1) The cytotoxic activity of the L^a–L^d and complexes 1–14 were tested against a panel of cell lines such as Hep-G2, NCI-H460, SK-OV-3, HCT-8, BEL-7402 cells, and one normal cell line, HL-7702, and cell viability was determined using the MTT assay. Cisplatin was used as the positive control.

[12] = system: human hepatoma (BEL-7402) xenograft; experiment: In vivo antitumor activity, BEL-7402 xenograft model; set-up: species or system nude mice; conditions: cisplatin, 2 mg/kg/2days ip; for Tumor Volume (end): day 18, 2 mg/kg
Procedure: Animal used, acute toxicity studies and antitumor activity toward BEL-7402 in vivo of complex 3 (16 and 8 mg/kg, two time a day,17 days (ip)), complex 6 (3.2 and 1.6 mg/kg/ day, 17 days) and cisplatin (2 mg/kg/2days), were similar to that reported by Chen[43][80]. BEL-7402 xenograft mouse models were purchased from Beijing HFK Bioscience Co., Ltd (Beijing, China, approval No. SCXK 2014-004). The animal procedures were approved by the Institute of Radiation Medicine Chinese Academy of Medical Sciences (Tian Jin, China, approval No. SYXK 2014-0002). And all of the experimental procedures were carried out in accordance with the NIH Guidelines for the Care and Use of Laboratory Animals. Animal experiments were approved by the Animal Care and Use Committee of Institute of Radiation Medicine Chinese Academy of Medical Sciences.

Hep-G2 cells [13] = experiment: Cellular uptake of metal by ICP-MS; type: cell-based, human; conditions: Hep-G2, 24 h; 3 5 μM, 6 14 μM, 7 16 μM, 8 10 μM, 10 12 μM, 11 6 μM, cisplatin 10 μM
Procedure: In order to understand the uptake and distribution of cisplatin, complexes 1–6, 7, 8, 10 and 11 in Hep-G2 cells, an ICP-MS assay was performed to quantify the amount of metal (Pt, Ni or Pd) taken up by the cells.

[14] = Body weight in the BEL-7402 xenograft study
Procedure: To investigate the efficacy of 3 to inhibit tumor growth in vivo, a mouse model of human hepatoma (BEL-7402) xenograft was used. The tumor-bearing nude mice received treatment when the tumor size was between 100 and 160 mm^3. The mice were treated with 3 at 16 and 8 mg/kg two times every day, and treatment of cisplatin with 2 mg/kg/2days as the positive control.
(1 picture or pasted object on this page, not shown here)

Hep-G2 cells [15] = experiment: Distribution of metal in nuclear and mitochondrial fractions (ICP-MS); type: cell-based, human; conditions: Hep-G2, 24 h
Procedure: The distributions of metal (cisplatin, complexes 1–6, 7, 8, 10 and 11) in the nuclear fraction and mitochondrial fractions of Hep-G2 cells were studied after exposure of Hep-G2 cells to 1–6, 7, 8, 10, 11 and cisplatin for 24 h according to our previous reports. […] Taken together, their difference of metal (Pt, Ni or Pd) distribution for complexes 1–6, 7, 8, 10, 11 and cisplatin could be attributed to their differences in cytotoxicity and the apoptotic pathways in Hep-G2 cells.

Hep-G2 cells [16] = conditions: Hep-G2, 48 h; for Inhibitory rates (%): footnote a: 20 μM, footnotes b, c (salts, cisplatin) cut off
Procedure: as §1

BEL-7402 cells = experiment: MTT cytotoxicity assay; type: cell-based, human; conditions: BEL-7402, 48 h; for Inhibitory rates (%): footnote a: 20 μM, footnotes b, c (salts, cisplatin) cut off
Procedure: as §1

HCT-8 cells = experiment: MTT cytotoxicity assay; type: cell-based, human; conditions: HCT-8, 48 h; for Inhibitory rates (%): footnote a: 20 μM, footnotes b, c (salts, cisplatin) cut off
Procedure: as §1

NCI-H460 cells = experiment: MTT cytotoxicity assay; type: cell-based, human; conditions: NCI-H460, 48 h; for Inhibitory rates (%): footnote a: 20 μM, footnotes b, c (salts, cisplatin) cut off
Procedure: as §1

SK-OV-3 cells = experiment: MTT cytotoxicity assay; type: cell-based, human; conditions: SK-OV-3, 48 h; for Inhibitory rates (%): footnote a: 20 μM, footnotes b, c (salts, cisplatin) cut off
Procedure: as §1

Molecule | ds26DC50 [1] | c-kit-2DC50 [3] | HTG21DC50 [6] | c-kit-1DC50 [7] | Pu27DC50 [8] | Pu22DC50 [9] | Inhibitory rates (%) (HL-7702 cells) | Inhibitory rates (%) (Hep-G2 cells [16]) | Inhibitory rates (%) (BEL-7402 cells) | Inhibitory rates (%) (HCT-8 cells) | Inhibitory rates (%) (NCI-H460 cells) | Inhibitory rates (%) (SK-OV-3 cells) | further results
N.N.[Cl][Pt][Cl] [Cisplatin, cisplatin, reference compound] | – | – | – | – | – | – | 63.09 ± 1.35% | 68.71 ± 0.56% | 65.82 ± 1.11% | 56.07 ± 1.67% | 59.13 ± 1.35% | 58.06 ± 1.03% | IC50 (HL-7702 cells): 12.3 ± 1.19 µM; Tumor Volume (start) [12]: 104.79 ± 32.12 mm^3; average tumor weight (mean ± SD g) [12]: 0.52 ± 0.29 g; Tumor Volume (end) [12]: 566.82 ± 331.08 mm^3; Tumor Volume (end) ([12]; listed as cisplatin): 566 mm^3; inhibition of tumor growth (%) / Inhibition Ratio ([12]; tumor weight): 75.9%; cellular accumulation of metal (Pt) (Hep-G2 cells [13]): 4.89 ± 0.43 nmol platinum/10^6 cells; body weight loss during treatment (in words) ([14]; BEL-7402 xenograft mice): severe body weight loss; Body Weight (end) ([14]; cisplatin, 2 mg/kg/2days ip): 19.6 ± 0.9 g; Body Weight (start) ([14]; cisplatin, 2 mg/kg/2days ip): 22.5 ± 1.1 g; RBW (%) (end) ([14]; cisplatin, 2 mg/kg/2days ip): 87.11 ± 4.8%; distribution of metal in nuclear and mitochondrial fractions (Hep-G2 cells [15]): mainly accumulated in the mitochondrial fraction; IC50 (Hep-G2 cells [16]): 9.65 ± 0.87 µM; IC50 (BEL-7402 cells): 12.7 ± 0.94 µM; IC50 (HCT-8 cells): 16.3 ± 1.54 µM; IC50 (NCI-H460 cells): 18.1 ± 1.26 µM; IC50 (SK-OV-3 cells): 14.1 ± 1.07 µM
O.O.O.O.O.O.[Cl][Ni][Cl] [NiCl2·6H2O, reference compound] | – | – | – | – | – | – | 17.03 ± 1.16% | 15.06 ± 1.09% | 11.28 ± 1.08% | 12.75 ± 1.09% | 10.44 ± 1.82% | 20.88 ± 0.61% | –
[Cl][Pd][Cl] [PdCl2, reference compound] | – | – | – | – | – | – | 18.24 ± 1.33% | 20.14 ± 1.18% | 18.59 ± 1.77% | 15.05 ± 1.84% | 9.91 ± 1.49% | 19.02 ± 1.04% | –
O=C1c2c(Cl)cc[c]3c2-c2c4c1cccc4cc[n+]2[Pt-2]31[NH2+]CCC[NH2+]1.[Cl-] (stereo not shown) [compound 9, [Pt(L^c)(pn)]Cl] | – | – | – | – | – | – | 39.56 ± 1.01% | 58.11 ± 2.05% | 40.64 ± 0.85% | 40.89 ± 1.79% | 47.28 ± 1.07% | 36.74 ± 1.21% | IC50 (HL-7702 cells): 80 ± 1.02 µM; IC50 (Hep-G2 cells [16]): 15.9 ± 2.11 µM; IC50 (BEL-7402 cells): 45 ± 0.86 µM; IC50 (HCT-8 cells): 25.2 ± 1.82 µM; IC50 (NCI-H460 cells): 25.1 ± 1.09 µM; IC50 (SK-OV-3 cells): 30.4 ± 1.19 µM
NCCN [en, 1,2-ethylenediamine, reference compound] | – | – | – | – | – | – | 15.03 ± 0.65% | 13.64 ± 2.03% | – | 16.45 ± 1.92% | 20.58 ± 1.66% | 18.42 ± 0.98% | –
cis-Pt(DMSO)2Cl2 [reference compound] | – | – | – | – | – | – | no activity | 17.83 ± 0.57% | 10.74 ± 0.95% | no activity | no activity | 15.11 ± 1.17% | –

The next lines start with results.

ds26DC50 [1] | c-kit-2DC50 [3] | HTG21DC50 [6] | c-kit-1DC50 [7] | Pu27DC50 [8] | Pu22DC50 [9] | Molecule | Inhibitory rates (%) (HL-7702 cells) | Inhibitory rates (%) (Hep-G2 cells [16]) | Inhibitory rates (%) (BEL-7402 cells) | Inhibitory rates (%) (HCT-8 cells) | Inhibitory rates (%) (NCI-H460 cells) | Inhibitory rates (%) (SK-OV-3 cells) | further results
91.48 | 79.69 | 55.16 | – | – | – | COC1c2c([c-]ccc2Cl)-c2nccc3cccc1c23.CS(C)=O.[Cl-].[Pt+2] (stereo not shown) | – | – | – | – | – | – | Pu27DC50 [2]: 33.15; Pu22DC50 [4]: 74.91; c-kit-1DC50 [5]: 79.95
96.11 | 87.29 | 70.83 | 90.02 | 60.02 | 99.81 | CS(C)=O.O=C1c2c([c-]ccc2Cl)-c2nccc3cccc1c23.[Cl-].[Pt+2] | – | – | – | – | – | – | –
37.01 | 3.61 | 3.35 | 9.11 | 1.31 | 7.63 | Nc1ccc2ccnc3c2c1C(=O)c1ccccc1-3.[Cl-].[Cl-].[Ni+2] | – | – | – | – | – | – | –
21.76 | 5.01 | 3.91 | 18.75 | 3.88 | 9.09 | Nc1ccc2ccnc3c2c1C(=O)c1ccccc1-3.[Cl-].[Cl-].[Pd+2] | – | – | – | – | – | – | –
– | 45.30 | – | 73.65 | 14.22 | 90.18 | Nc1cccc2c1C(=O)c1cccc3ccnc-2c13.[Cl-].[Cl-].[Ni+2] | – | – | – | – | – | – | HTG21DC50 [10]: 26.45; ds26DC50 [11]: 70.46
90.63 | > 100 | 49.08 | 78.46 | 42.51 | 89.64 | Nc1cccc2c1C(=O)c1cccc3ccnc-2c13.[Cl-].[Cl-].[Pd+2] | – | – | – | – | – | – | –
